The source of these data is patent US11254668B2, “Pyrazolo[1,5-A]pyrazin-4-yl and related derivatives” (Pfizer Inc., priority 2017, dated 2022).

Holding throughout (format): biochemical
The target of test [1] is TYK2 (Homo sapiens (Human), UniProt P29597). Kind of test: JAK Caliper Enzyme Assay at 1 mM ATP, TYK2. The gist of the method: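 First, compound was incubated at room temperature with recombinant human kinase domain, a synthetic peptide and 1 mM ATP until 20–30% of peptide was phosphorylated. Next, EDTA stopped the reaction. Finally, electrophoretic separation quantified product, and percent effect relative to controls was plotted against concentration.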
Chain of TYK2 (P29597 897-1176): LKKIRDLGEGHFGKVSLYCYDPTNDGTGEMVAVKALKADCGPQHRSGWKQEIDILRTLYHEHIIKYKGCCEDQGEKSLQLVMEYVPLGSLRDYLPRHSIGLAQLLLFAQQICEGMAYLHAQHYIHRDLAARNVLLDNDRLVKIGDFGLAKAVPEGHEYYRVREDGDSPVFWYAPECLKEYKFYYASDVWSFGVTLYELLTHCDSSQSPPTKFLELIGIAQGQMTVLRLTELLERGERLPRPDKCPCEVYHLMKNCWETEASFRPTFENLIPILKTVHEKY

Test [2] concerns the target JAK1 (Homo sapiens (Human), UniProt P23458). Kind of test: JAK Caliper Enzyme Assay at 1 mM ATP, JAK1. A digest of the protocol:
(§1)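 Recombinant human kinase domains phosphorylated a fluorescent synthetic peptide at room temperature, with enzyme level and time tuned to 20% to 30% conversion; EDTA stop buffer ended reactions. Mobility-shift separation gave percent product from peak heights, normalised to DMSO and positive controls, and IC50s came from concentration–effect curves.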

Test [3] deals with JAK2 (Homo sapiens (Human), UniProt O60674). The test can be described thus: JAK Caliper Enzyme Assay at 1 mM ATP, JAK2. The method, then:
Compounds of the invention were evaluated by in vitro methods to determine their respective ability to inhibit the JAK kinases (TYK2, JAK1, JAK2, JAK3).
The human JAK inhibitory activity was determined by using a microfluidic assay to monitor phosphorylation of a synthetic peptide by the recombinant human kinase domain of each of the four members of the JAK family, JAK1, JAK2, JAK3 and TYK2. […] Each assay condition was optimized for enzyme concentration and room temperature incubation time to obtain a conversion rate of 20% to 30% phosphorylated peptide product. Reactions were terminated by the addition of stop buffer containing EDTA. Utilizing the LabChip 3000 mobility shift technology (Caliper Life Science), each assay reaction was sampled to determine the level of phosphorylation. This technology is separation-based, allowing direct detection of fluorescently labeled substrates and products. Separations are controlled by a combination of vacuum pressure and electric field strength optimized for each peptide substrate.
JAK Caliper Enzyme Assay at 1mM ATP
Compounds were added to a 384-well plate.
The data was collected using the HTS Well Analyzer software from Caliper Life Sciences. The data output for data analysis is the percent product converted calculated on peak height (Equation 1). % product converted=100*((product)/(product+substrate)) Equation 1: […]
The percent effect at each compound concentration was calculated based on the positive and negative control well contained within each assay plate (Equation 2). […] The negative control wells contained DMSO alone (at the same concentration as the compound wells) that was used to set the baseline activity in the assay (i.e., uninhibited JAK1, JAK2, JAK3 or TYK2). % effect=100*([…](positive control-negative control)) Equation 2: […]
The percent effect was plotted against the compound concentration compound.

Test [4] deals with JAK3 (Homo sapiens (Human), UniProt P52333). The test can be described thus: JAK Caliper Enzyme Assay at 1 mM ATP, JAK3. The gist of the method: as §1
Chain of JAK3 (P52333 822-1111): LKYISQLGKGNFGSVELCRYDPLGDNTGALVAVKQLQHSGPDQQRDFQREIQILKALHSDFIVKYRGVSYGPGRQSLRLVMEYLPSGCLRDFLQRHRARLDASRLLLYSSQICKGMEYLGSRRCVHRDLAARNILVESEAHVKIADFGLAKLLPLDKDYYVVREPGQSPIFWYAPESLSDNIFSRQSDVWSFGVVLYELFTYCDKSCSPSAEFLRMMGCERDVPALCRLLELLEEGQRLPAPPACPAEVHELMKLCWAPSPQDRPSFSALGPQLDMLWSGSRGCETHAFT

Some results are limits rather than exact numbers.

Chain of JAK2 (O60674 849-1124): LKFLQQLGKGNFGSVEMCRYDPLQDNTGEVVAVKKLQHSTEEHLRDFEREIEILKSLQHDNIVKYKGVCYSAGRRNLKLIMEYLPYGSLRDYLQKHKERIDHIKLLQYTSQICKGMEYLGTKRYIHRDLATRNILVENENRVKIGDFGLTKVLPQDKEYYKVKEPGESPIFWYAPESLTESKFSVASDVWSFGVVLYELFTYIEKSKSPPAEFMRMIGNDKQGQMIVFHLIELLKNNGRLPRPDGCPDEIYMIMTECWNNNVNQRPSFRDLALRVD
Chain of JAK1 (P23458 875-1153): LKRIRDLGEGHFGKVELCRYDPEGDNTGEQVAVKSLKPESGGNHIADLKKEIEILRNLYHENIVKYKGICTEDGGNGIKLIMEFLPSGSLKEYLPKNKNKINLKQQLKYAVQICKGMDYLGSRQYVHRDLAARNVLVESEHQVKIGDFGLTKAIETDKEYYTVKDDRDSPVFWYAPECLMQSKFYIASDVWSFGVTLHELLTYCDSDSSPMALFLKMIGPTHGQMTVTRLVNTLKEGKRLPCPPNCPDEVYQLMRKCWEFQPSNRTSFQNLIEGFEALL

As for `N#CCC1(n2ccc(-c3nc(-c4ccn[nH]4)cc4ncccc34)n2)CC(C#N)C1` (stereo not drawn) [Example 21, cis-3-(cyanomethyl)-3-{3-[7-(1H-pyrazol-5-yl)-1,6-naphthyridin-5-yl]-1H-pyrazol-1-yl}cyclobutanecarbonitrile], the IC50 is 9 nM in test [1], 71 nM in test [2], 50 nM in test [3] and 6750 nM in test [4].

Take `N#CC[C@H]1C[C@](CC#N)(n2ccc(-c3nc(-c4ccn[nH]4)cc4ncccc34)n2)C1` [Example 22, 2,2′-(trans-1-{3-[7-(1H-pyrazol-5-yl)-1,6-naphthyridin-5-yl]-1H-pyrazol-1-yl}cyclobutane-1,3-diyl)diacetonitrile]: the IC50 in test [1] is 61 nM; in test [2] it was 834 nM; in test [3] it was 891 nM; in test [4], more than 10000 nM.

As for `N#CCC1CC(CC#N)(n2ccc(-c3nc(-c4ccn[nH]4)cc4ncccc34)n2)C1` (stereo not drawn) [Example 23, 2,2′-(cis-1-{3-[7-(1H-pyrazol-5-yl)-1,6-naphthyridin-5-yl]-1H-pyrazol-1-yl}cyclobutane-1,3-diyl)diacetonitrile], the IC50 in test [1] was 15 nM; in test [2], 324 nM; in test [3], 216 nM; in test [4], more than 10000 nM.

As for `N#CC[C@]1(n2ccc(-c3nc(-c4cc[nH]n4)cc4ncccc34)n2)C[C@@H](C(N)=O)C1` [Example 24, cis-3-(cyanomethyl)-3-{3-[7-(1H-pyrazol-3-yl)-1,6-naphthyridin-5-yl]-1H-pyrazol-1-yl}cyclobutanecarboxamide], the IC50 in test [1] is 167 nM; in test [2] it was 3670 nM; in test [3], 1690 nM; in test [4], more than 10000 nM.

Regarding `N#CCC1(n2ccc(-c3nc(-c4ccn[nH]4)cc4ncccc34)n2)CC(C(N)=O)C1` (stereo not drawn) [Example 25, trans-3-(cyanomethyl)-3-{3-[7-(1H-pyrazol-5-yl)-1,6-naphthyridin-5-yl]-1H-pyrazol-1-yl}cyclobutanecarboxamide], the IC50 in test [1] is 1640 nM; in test [2] it was more than 10000 nM; in test [3], 8680 nM; in test [4], more than 10000 nM.

`CNC(=O)C1CC(CC#N)(n2ccc(-c3nc(-c4cc[nH]n4)cc4ncccc34)n2)C1` (stereo not drawn) [Example 26, cis-3-(cyanomethyl)-N-methyl-3-{3-[7-(1H-pyrazol-3-yl)-1,6-naphthyridin-5-yl]-1H-pyrazol-1-yl}cyclobutanecarboxamide]: the IC50 is 1470 nM in test [1], 6070 nM in test [2], 3900 nM in test [3] and more than 10000 nM in test [4].

As for `CNC(=O)[C@H]1C[C@](CC#N)(n2ccc(-c3nc(-c4ccn[nH]4)cc4ncccc34)n2)C1` [Example 27, trans-3-(cyanomethyl)-N-methyl-3-{3-[7-(1H-pyrazol-5-yl)-1,6-naphthyridin-5-yl]-1H-pyrazol-1-yl}cyclobutanecarboxamide], the IC50 was 7560 nM in test [1], more than 10000 nM in test [2], more than 10000 nM in test [3] and more than 10000 nM in test [4].

As to `N#CCC1(n2ccc(-c3nc(-c4ccn[nH]4)cc4ncccc34)n2)CC(CO)C1` (stereo not drawn) [Example 28, [trans-3-(hydroxymethyl)-1-{3-[7-(1H-pyrazol-5-yl)-1,6-naphthyridin-5-yl]-pyrazol-1-yl}cyclobutyl]acetonitrile], the IC50 in test [1] was 207 nM; in test [2], 2570 nM; in test [3], 1790 nM; in test [4], more than 10000 nM.

As to `N#CCC1(n2ccc(-c3nc(-c4ccn[nH]4)cc4ncccc34)n2)CC(CO)C1` (stereo not drawn) [Example 29, [cis-3-(hydroxymethyl)-1-{3-[7-(1H-pyrazol-5-yl)-1,6-naphthyridin-5-yl]-1H-pyrazol-1-yl}cyclobutyl]acetonitrile], the IC50 in test [1] was 437 nM; in test [2] it was 3800 nM; in test [3] it was 2340 nM; in test [4] it was more than 10000 nM.

Regarding `CO[C@H]1C[C@](CC#N)(n2ccc(-c3nc(-c4ccn[nH]4)cc4ncccc34)n2)C1` [Example 30, (trans-3-methoxy-1-{3-[7-(1H-pyrazol-5-yl)-1,6-naphthyridin-5-yl]-1H-pyrazol-1-yl}cyclobutyl)acetonitrile], the IC50 in test [1] was 75 nM; in test [2], 1960 nM; in test [3], 1770 nM; in test [4], more than 10000 nM.

Take `CO[C@H]1C[C@@](CC#N)(n2ccc(-c3nc(-c4ccn[nH]4)cc4ncccc34)n2)C1` [Example 31, (cis-3-methoxy-1-{3-[7-(1H-pyrazol-5-yl)-1,6-naphthyridin-5-yl]-1H-pyrazol-1-yl}cyclobutyl)acetonitrile]: the concentration for half-maximal inhibition (IC50) in test [1] was 53 nM; in test [2] it was 1800 nM; in test [3], 955 nM; in test [4], more than 10000 nM.

For the compound `CC(=O)NC1CC(CC#N)(n2ccc(-c3nc(-c4cc[nH]n4)cc4ncccc34)n2)C1` (stereo not drawn) [Example 32, N-[trans-3-(cyanomethyl)-3-{3-[7-(1H-pyrazol-3-yl)-1,6-naphthyridin-5-yl]-pyrazol-1-yl}cyclobutyl]acetamide], the IC50 in test [1] was 730 nM; in test [2] it was 5830 nM; in test [3], 3430 nM; in test [4], more than 10000 nM.

In the case of `C[C@]1(C#N)C[C@@](CC#N)(n2ccc(-c3nc(-c4cc[nH]n4)cc4ncccc34)n2)C1` [Example 35, cis-3-(cyanomethyl)-1-methyl-3-{3-[7-(1H-pyrazol-3-yl)-1,6-naphthyridin-5-yl]-1H-pyrazol-1-yl}cyclobutanecarbonitrile], the IC50 in test [1] was 44 nM; in test [2], 569 nM; in test [3], 339 nM; in test [4], more than 10000 nM.

For the compound `C[C@]1(C#N)C[C@](CC#N)(n2ccc(-c3nc(-c4cc[nH]n4)cc4ncccc34)n2)C1` [Example 36, trans-3-(cyanomethyl)-1-methyl-3-{3-[7-(1H-pyrazol-3-yl)-1,6-naphthyridin-5-yl]-1H-pyrazol-1-yl}cyclobutanecarbonitrile], the IC50 in test [1] was 1060 nM; in test [2], 7100 nM; in test [3], 5740 nM; in test [4], more than 10000 nM.

For the compound `N#CCC1(n2ccc(-c3nc(-c4cc[nH]n4)cc4ncccc34)n2)CC2(COC2)C1` [Example 37, (6-{3-[7-(1H-pyrazol-3-yl)-1,6-naphthyridin-5-yl]-1H-pyrazol-1-yl}-2-oxaspiro[3.3]hept-6-yl)acetonitrile], the IC50 in test [1] is 369 nM; in test [2], 4280 nM; in test [3], 2830 nM; in test [4] it was more than 10000 nM.

As to `CC(=O)N1CC2(C1)CC(CC#N)(n1ccc(-c3nc(-c4cc[nH]n4)cc4ncccc34)n1)C2` [Example 38, (2-acetyl-6-{3-[7-(1H-pyrazol-3-yl)-1,6-naphthyridin-5-yl]-1H-pyrazol-1-yl}-2-azaspiro[3.3]hept-6-yl)acetonitrile], the IC50 in test [1] is 4020 nM; in test [2] it was more than 10000 nM; in test [3], 5630 nM; in test [4], more than 10000 nM.

`CC(C)(O)[C@H]1C[C@](CC#N)(n2ccc(-c3nc(-c4cc[nH]n4)cc4ncccc34)n2)C1` [Example 39, [trans-3-(2-hydroxypropan-2-yl)-1-{3-[7-(1H-pyrazol-3-yl)-1,6-naphthyridin-5-yl]-1H-pyrazol-1-yl}cyclobutyl]acetonitrile]: the IC50 is 205 nM in test [1], 2770 nM in test [2], 2080 nM in test [3] and more than 10000 nM in test [4].
